Assay results taken from patent US11825868B2, “Sweetener composition” (Hapy Sweet Bee Ltd, priority 2019, dated 2023).
≈ marks a conversion by molar mass, not a printed value.

Experiments:
[1] = test system: microbial growth; conditions: cited from earlier work
[2] = relative to sucrose, baseline 1.0; cited from earlier work
[3] = on the palate; reb-M used alone or substantially alone, compared to established rebaudioside sweeteners including reb-A; cited from earlier work
[4] = Solubility and retention of reb-M in 1,3-propanediol after heating and cooling; assay type: physicochemical
Protocol: The solvent or liquid base for the sweetener composition may comprise 1,3-propanediol and optionally one or more additional solvents. […] (175° F.) and cooled to room temperature. […] (36° F.).

[5] = room temperature; cited from earlier work

Compound: 1,3-propanediol
- minimum inhibitory concentration (MIC) compared with other solvents such as glycerin [1]: lower

Compound: O=C(CO)[C@@H](O)[C@H](O)[C@H](O)CO [fructose]
- sweetness index [2]: approximately 1.7

Compound: C=C1C[C@@]23CC[C@H]4[C@@](C)(CCC[C@@]4(C)C(=O)O[C@@H]4O[C@H](CO)[C@@H](O)[C@H](O)[C@H]4O)[C@@H]2CC[C@]1(O[C@@H]1O[C@H](CO)[C@@H](O)[C@H](O[C@@H]2O[C@H](CO)[C@@H](O)[C@H](O)[C@H]2O)[C@H]1O[C@@H]1O[C@H](CO)[C@@H](O)[C@H](O)[C@H]1O)C3 [reb-A, Rebaudioside A]
- bitter aftertaste [3]: bitter aftertaste

Compound: C=C1C[C@@]23CC[C@H]4[C@@](C)(CCC[C@@]4(C)C(=O)O[C@@H]4O[C@H](CO)[C@@H](O)[C@H](O[C@@H]5O[C@H](CO)[C@@H](O)[C@H](O)[C@H]5O)[C@H]4O[C@@H]4O[C@H](CO)[C@@H](O)[C@H](O)[C@H]4O)[C@@H]2CC[C@]1(O[C@@H]1O[C@H](CO)[C@@H](O)[C@H](O[C@@H]2O[C@H](CO)[C@@H](O)[C@H](O)[C@H]2O)[C@H]1O[C@@H]1O[C@H](CO)[C@@H](O)[C@H](O)[C@H]1O)C3 [reb-M, rebaudioside-M]
- bitter aftertaste [3]: reduced bitterness of aftertaste
- solubility ([4]; 1,3-propanediol, organic solvent or mixture, thermodynamic from solid, solvent heated in excess of 80° C. (175° F.) and cooled to room temperature): ~795 mg/mL (≈ 616 mM)
- retention in solution on cooling ([4]; heated 1,3-propanediol solution cooled back to room temperature): retained in the solution
- retention in solution on cooling ([4]; heated 1,3-propanediol solution cooled to approximately 2° C. (36° F.)): retained in solution
- solubility in water [5]: up to 0.1 g per 100 ml water

Compound: OC[C@H]1O[C@@](CO)(O[C@H]2O[C@H](CO)[C@@H](O)[C@H](O)[C@H]2O)[C@@H](O)[C@@H]1O [sucrose]
- sweetness index [2]: 1.0
